Data from patent US11013745B2, “Triazolopyrimidine, triazolopyridine compounds, and the composition thereof for treating PRC2-mediated diseases” (SHANGHAI INSTITUTE OF MATERIA MEDICA, CHINESE ACADEMY OF …, priority 2017, dated 2021).
Like-named read-outs stand apart in the source and are kept apart here.

What was measured:
[1] = target: PRC2 enzyme (Homo sapiens (Human), UniProt O75530); assay: PRC2 enzyme activity, TR-FRET method; assay type: biochemical
Description: The TR-FRET method was used to measure the PRC2 enzyme activity. First, the enzyme was mixed with compounds at different concentrations and incubated for 30 min at room temperature. The biotin-labeled histone H3 peptide substrate and the cofactor S-adenosylmethionine (SAM) were added to initiate the enzymatic reaction. After reaction was performed at room temperature for 4 hour, Acceptor and Donor were added and incubated for half an hour. The multifunctional microplate reader EnVision (Perkin Elmer Inc.) was used to detect the fluorescence signal. Data were analyzed using GraphPad Prism 5.0 software, and IC50 values were obtained.

[2] = system: Pfeiffer cells; assay: Pfeiffer cell growth inhibition in a long term (11 days), CellTiter-Glo; assay type: cell-based, Human; settings: Homo sapiens, 264 h, read-out: Experiment on Pfeiffer cell growth inhibition in a long term (11 days IC50)
Description: Pfeiffer cells in exponential growth phase were seeded in a 24-well plate with a cell density of 1*10E5 cells/mL. Cells were treated on the same day with the compounds at different concentrations. At day 4 and day 7 of compound treatment, fresh media and compounds were changed. After treated with the compounds for 11 days, cell viability was measured using CellTiter-Glo reagent (Promega Corporation). The data was analyzed using GraphPad Prism 5.0 software and GI50 values were obtained.

[3] = Liver microsomal stability (human); assay type: in vitro ADME
Description: (§1) 1. JANUS and temperature control device was turned on. After being initialized, the pipes were flushed until there was no air bubble in the pipes.
(§2) 2. Preparation of buffers used for the experiment
(§3) Preparation of Tris pH 7.4 buffer (0.1 M): 12.12 g of Tris was dissolved in 1000 mL of H2O, the resulting solution was adjusted to pH 7.4 with 2N HCl, aliquoted at 50 mL per tube, and stored at −20° C.
(§4) Preparation of H2O/0.1% BSA buffer: 200 μL of 25% BSA was added to 50 mL of H2O.
(§5) Preparation of VIVID stock solution: 1 mg of VIVID was dissolved in 1 mL of acetonitrile, aliquoted at 50 μL per tube, and stored at −20° C.
(§6) Preparation of MgCl2 solution (100 mM): 1.016 g of MgCl2 was dissolved in 50 mL Tris pH 7.4 buffer, and aliquoted at 1 mL per tube, and stored at −20° C.
(§7) Preparation of NADPH solution (10 mM): 355 mg of NADPH was dissolved in 42.6 mL of Tris pH 7.4 buffer, aliquoted at 1.8 mL per tube, and stored at −20° C.
(§8) Preparation of Blank control: 7.937 mL of Tris, 163 μL of RLM, 450 μL of MgCl2 solution, 450 μL of NADPH solution and 9 mL of methanol were mixed uniformly, aliquoted at 1 mL per tube, and stored at −20° C.
(§9) 3. Preparation of Compound Working Solution
(§10) Dilution step 1:10 μL of compound stock solution was added to 90 μL of DMSO=1 mM stock solution.
(§11) Dilution step 2: 2 μL of 1 mM stock solution was added to 1 mL of H2O/0.1%6 BSA buffer=[…] working solution.
(§12) Dilution step 3: 245 μL of the working solution was added to a 96-well compound plate and added with 5 μL of VIVID stock solution.
(§13) The 96-well compound plate was shaken on a shaker for 5 min.
(§14) 4. The STM in the JANUS in the computer was open to run the EXCEL file, and the JANUS program was operated and run by following the instructions in the EXCEL file.
(§15) 5. After the JANUS program was finished, acetonitrile/water 50:50 (V/V) was added to column 20 of the 384-well black plate, and blank control was added to column 21 of the 384-well black plate.
(§16) 6. the plate (420 nm-465 nm) was read on a microplate reader to determine the VIVID fluorescence intensity.
(§17) 7. After the plate was sealed, shaken and centrifuged, the sample plate was subjected to the LC/MS instrument for sample analysis.
(§18) A profile of the logarithmic value of the remaining rate of the drug in the incubation system versus the incubation time was plotted, and the slope k was obtained by linear regression. The intrinsic clearance rate in vivo (Clint, mL/min/g) value, the clearance rate in vivo (Cl, mL)/min), liver clearance (Clhep, mL/min) and metabolic bioavailability (% MF) were predicted according to the following equations: […]

[4] = Liver microsomal stability (rat); assay type: in vitro ADME; settings: rat liver microsomes
Description: as §1, §2, §3, §4, §5, §6, §7, §8, §9, §10, §11, §12, §13, §14, §15, §16, §17, §18

[5] = Liver microsomal stability (mouse); assay type: in vitro ADME; settings: mouse liver microsomes

Sequence of PRC2 enzyme (O75530 whole entry): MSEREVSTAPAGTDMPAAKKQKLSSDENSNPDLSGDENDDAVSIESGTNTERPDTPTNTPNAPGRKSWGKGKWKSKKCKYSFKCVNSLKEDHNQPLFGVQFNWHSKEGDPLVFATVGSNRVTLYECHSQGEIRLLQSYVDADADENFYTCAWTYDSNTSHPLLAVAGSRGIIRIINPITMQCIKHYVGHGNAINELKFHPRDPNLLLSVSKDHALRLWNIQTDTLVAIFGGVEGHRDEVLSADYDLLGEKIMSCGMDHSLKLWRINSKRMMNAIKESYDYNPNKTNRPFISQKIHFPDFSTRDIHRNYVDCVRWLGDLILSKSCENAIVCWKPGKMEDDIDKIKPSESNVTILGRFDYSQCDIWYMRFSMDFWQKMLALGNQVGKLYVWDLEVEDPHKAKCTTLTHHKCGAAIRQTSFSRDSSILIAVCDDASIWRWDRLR
Sequence of PRC2 enzyme (Q15910 whole entry partner): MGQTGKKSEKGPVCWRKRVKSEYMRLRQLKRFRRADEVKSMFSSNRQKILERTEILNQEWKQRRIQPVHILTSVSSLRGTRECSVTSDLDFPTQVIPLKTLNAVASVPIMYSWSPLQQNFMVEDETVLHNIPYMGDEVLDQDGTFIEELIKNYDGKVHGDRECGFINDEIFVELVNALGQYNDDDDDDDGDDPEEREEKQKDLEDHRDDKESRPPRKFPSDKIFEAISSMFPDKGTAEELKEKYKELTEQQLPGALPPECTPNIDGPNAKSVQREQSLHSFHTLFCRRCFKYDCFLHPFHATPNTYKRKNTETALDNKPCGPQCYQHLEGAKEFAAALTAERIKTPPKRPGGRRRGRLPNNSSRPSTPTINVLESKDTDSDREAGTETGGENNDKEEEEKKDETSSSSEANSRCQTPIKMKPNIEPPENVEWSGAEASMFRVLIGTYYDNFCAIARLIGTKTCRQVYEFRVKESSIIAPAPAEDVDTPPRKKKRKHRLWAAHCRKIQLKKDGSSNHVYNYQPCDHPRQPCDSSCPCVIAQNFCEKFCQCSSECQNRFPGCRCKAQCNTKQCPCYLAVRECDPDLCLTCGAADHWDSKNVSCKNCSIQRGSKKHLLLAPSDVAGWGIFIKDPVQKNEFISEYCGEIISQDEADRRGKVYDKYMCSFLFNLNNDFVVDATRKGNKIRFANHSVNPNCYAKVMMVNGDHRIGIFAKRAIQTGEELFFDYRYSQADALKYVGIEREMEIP
Sequence of PRC2 enzyme (Q15022 whole entry partner): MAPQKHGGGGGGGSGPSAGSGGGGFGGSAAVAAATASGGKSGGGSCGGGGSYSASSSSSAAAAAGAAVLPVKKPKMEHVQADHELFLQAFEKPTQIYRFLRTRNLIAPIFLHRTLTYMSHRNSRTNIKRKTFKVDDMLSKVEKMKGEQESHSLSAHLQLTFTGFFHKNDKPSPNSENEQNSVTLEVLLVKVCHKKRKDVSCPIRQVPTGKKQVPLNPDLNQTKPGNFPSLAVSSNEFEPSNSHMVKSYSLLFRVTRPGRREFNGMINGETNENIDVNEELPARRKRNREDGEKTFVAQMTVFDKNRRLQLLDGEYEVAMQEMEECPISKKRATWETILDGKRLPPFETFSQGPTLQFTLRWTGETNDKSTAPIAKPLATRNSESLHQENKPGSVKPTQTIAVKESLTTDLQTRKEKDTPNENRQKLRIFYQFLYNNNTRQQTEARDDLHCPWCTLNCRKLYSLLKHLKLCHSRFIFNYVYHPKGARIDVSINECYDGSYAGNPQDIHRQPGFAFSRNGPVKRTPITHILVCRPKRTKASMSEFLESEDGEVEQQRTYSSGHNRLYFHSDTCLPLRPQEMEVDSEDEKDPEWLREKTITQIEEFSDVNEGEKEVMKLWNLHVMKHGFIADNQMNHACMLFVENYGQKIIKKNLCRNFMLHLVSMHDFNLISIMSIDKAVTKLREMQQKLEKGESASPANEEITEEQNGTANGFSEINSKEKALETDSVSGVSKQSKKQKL

Compound | IC50 [1] [nM] | IC50 ([2]; 11 days) [nM] | other results
Fc1ccc2c(c1CNc1ncc(C3=CCSCC3)c3nncn13)CCO2 [E-Y2] | 8 |  | 
CS(=O)(=O)N1CCC(c2cnc(NCc3c(F)ccc4c3CCO4)n3cnnc23)CC1 [E-Y13-H] | 10.7 |  | 
O=C(c1ccccc1)N1CC=C(c2cnc(NCc3c(F)ccc4c3CCO4)n3cnnc23)CC1 [E-Y16] | 17.7 | 4.8 | 
CC(C)(C)NC(=O)N1CC=C(c2cnc(NCc3c(F)ccc4c3CCO4)n3cnnc23)CC1 [E-Y18] | 21 | 2.7 | 
CCNC(=S)N1CC=C(c2cnc(NCc3c(F)ccc4c3CCO4)n3cnnc23)CC1 [E-Y19] | 9.3 |  | IC50 [2]: 3 nM
O=C(NC(=S)N1CC=C(c2cnc(NCc3c(F)ccc4c3CCO4)n3cnnc23)CC1)c1ccccc1 [E-Y39] | 54.5 |  | 
O=C(c1cnco1)N1CC=C(c2cnc(NCc3c(F)ccc4c3CCO4)n3cnnc23)CC1 [E-Y41] | < 20 | 4.5 | 
O=C(OCc1ccccc1)N1CC=C(c2cnc(NCc3c(F)ccc4c3CCO4)n3cnnc23)CC1 [E-Y44] | 85.8 | 2.3 | 
CCNC(=O)N1CCC(c2cnc(NCc3c(F)ccc4c3CCO4)n3cnnc23)CC1 [E-Y48] | 5.4 | 15.9 | 
CC(C)(C)NC(=O)N1CCC(c2cnc(NCc3c(F)ccc4c3CCO4)n3cnnc23)CC1 [E-Y49] | 6.6 | 10 | 
CC(=O)N1CCC=C(c2cnc(NCc3c(F)ccc4c3CCO4)n3cnnc23)CC1 [SL-E13] | 3.3 | 6 | 
CN1CCC(c2cnc(NCc3c(F)ccc4c3CCO4)n3cnnc23)CC1 [SL-E25] | 15 |  | 
CN1CCC(c2cnc(NCc3c(F)ccc4c3CCO4)n3cnnc23)CC1=O (stereo not shown) [SL-E26] | 8.4 |  | 
Fc1ccc2c(c1CNc1ncc(C3CCCOCC3)c3nncn13)CCO2 (stereo not shown) [SL-ZYE-08] | 11.9 |  | 
c1cc(CNc2ncc(C3CCOCC3)c3nncn23)c2c(c1)OCC2 [SL-ZYE-14] | 84 |  | 
CC1C=C(c2cnc(NCc3c(F)ccc4c3CCO4)n3cnnc23)CC(C)N1C(=O)OC(C)(C)C (stereo not shown) [SL-ZYE-23] | 47.6 |  | 
O=S1(=O)CCC(c2cnc(NCc3c(F)ccc4c3CCO4)n3cnnc23)CC1 [SL-ZYE-34] | 3.2 |  | 
CC1(C)C=C(c2cnc(NCc3c(F)ccc4c3CCO4)n3cnnc23)CCO1 [SL-ZYE-120] | 3.6 |  | 
CC1(C)CC(c2cnc(NCc3c(F)ccc4c3CCO4)n3cnnc23)CCO1 (stereo not shown) [SL-ZYE-121] | 4.2 |  | 
COC(=O)N1CCC=C(c2cnc(NCc3c(F)ccc4c3CCO4)n3cnnc23)CC1 [SL-ZYE-183] | 2.2 |  | 
CC1(C)C=C(c2cnc(NCc3c(F)ccc4c3CCO4)n3cnnc23)CC(C)(C)O1 [SL-ZYE-195] | 22.3 |  | 

More lines, main results first:

IC50 [1] [nM] | IC50 ([2]; 11 days) [nM] | Compound | other results
611 |  | C1=C(c2cnc(NCc3ccco3)n3cnnc23)CCSC1 [E-Y5] | 
 | 83 | CC(C)(C)OC(=O)N1CC=C(c2cnc(NCc3ccco3)n3cnnc23)CC1 [E-Y6] | 
 | 320 | CC(C)(C)OC(=O)NC1CC=C(c2cnc(NCc3ccco3)n3cnnc23)CC1 (stereo not shown) [E-Y9] | 
101 |  | Cc1ccc(S(=O)(=O)N2CC=C(c3cnc(NCc4c(F)ccc5c4CCO5)n4cnnc34)CC2)cc1 [E-Y14] | 
 | 2.7 | CCNC(=O)N1CC=C(c2cnc(NCc3c(F)ccc4c3CCO4)n3cnnc23)CC1 [E-Y17] | 
93.9 |  | CC(=O)N1CCC(c2cnc(NCc3ccco3)n3cnnc23)CC1 [E-Y20-H] | 
166 | 158 | CC(=O)N1CC=C(c2cnc(NCc3ccco3)n3cnnc23)CC1 [E-Y20] | 
351 | 185 | O=C(c1ccccc1)N1CC=C(c2cnc(NCc3ccco3)n3cnnc23)CC1 [E-Y21] | 
334 |  | CS(=O)(=O)N1CC=C(c2cnc(NCc3ccco3)n3cnnc23)CC1 [E-Y22] | 
350 | 107 | Cc1ccc(S(=O)(=O)N2CC=C(c3cnc(NCc4ccco4)n4cnnc34)CC2)cc1 [E-Y23] | 
373 |  | CC(C)(C)NC(=O)N1CC=C(c2cnc(NCc3ccco3)n3cnnc23)CC1 [E-Y25] | 
91 |  | Cc1ccc(NC(=O)N2CC=C(c3cnc(NCc4ccco4)n4cnnc34)CC2)cc1 [E-Y26] | 
793 |  | CC(=O)NC1CC=C(c2cnc(NCc3ccco3)n3cnnc23)CC1 (stereo not shown) [E-Y30] | 
758 |  | O=C(NC1CC=C(c2cnc(NCc3ccco3)n3cnnc23)CC1)c1ccccc1 (stereo not shown) [E-Y31] | 
342 |  | CS(=O)(=O)NC1CC=C(c2cnc(NCc3ccco3)n3cnnc23)CC1 (stereo not shown) [E-Y32] | 
907 |  | CC(F)(F)C(=O)N1CC=C(c2cnc(NCc3ccco3)n3cnnc23)CC1 [E-Y34] | 
318 |  | CN(C)CC(=O)N1CC=C(c2cnc(NCc3ccco3)n3cnnc23)CC1 [E-Y35] | 
543 | 289 | O=C(CN1CCOCC1)N1CC=C(c2cnc(NCc3ccco3)n3cnnc23)CC1 [E-Y36] | 
3.4 | 1.8 | C=CC(=O)N1CC=C(c2cnc(NCc3c(F)ccc4c3CCO4)n3cnnc23)CC1 [E-Y45] | 
200 |  | CC(C)(C)OC(=O)N1CC=C(c2cc(C#N)c(NCc3ccco3)n3cnnc23)CC1 [E-Y51] | 
5 |  | CN(C)CC(=O)N1CC=C(c2cnc(NCc3c(F)ccc4c3CCO4)n3cnnc23)CC1 [E-Y54-H] | Clearance rate in vivo Clint In Vivo Extpl ([3]; human liver microsomes): 336 mL/min; Half life T-half ([3]; human liver microsomes): 7.98 h; Intrinsic clearance rate in vivo Clint In Vitro ([3]; human liver microsomes): 4.39 mL/min/gprot; Liver clearance rate Clint Hep In Vivo Extpl ([3]; human liver microsomes): 274 mL/min; Metabolic bioavailability MF % ([3]; human liver microsomes): 81.7%; Clearance rate in vivo Clint In Vivo Extpl [4]: 4.26 mL/min; Half life T-half [4]: 3.7 h; Intrinsic clearance rate in vivo Clint In Vitro [4]: 9.47 mL/min/gprot; Liver clearance rate Clint Hep In Vivo Extpl [4]: 3.51 mL/min; Metabolic bioavailability MF % [4]: 82.4%; Clearance rate in vivo Clint In Vivo Extpl [5]: 1.21 mL/min; Half life T-half [5]: 1.95 h; Intrinsic clearance rate in vivo Clint In Vitro [5]: 17.9 mL/min/gprot; Liver clearance rate Clint Hep In Vivo Extpl [5]: 0.862 mL/min; Metabolic bioavailability MF % [5]: 71.3%
4.1 |  | CN(C)CC(=O)N1CC=C(c2cnc(NCc3c(F)ccc4c3CCO4)n3cnnc23)CC1 [E-Y54] | Clearance rate in vivo Clint In Vivo Extpl ([3]; human liver microsomes): 188 mL/min; Intrinsic clearance rate in vivo Clint In Vitro ([3]; human liver microsomes): 2.46 mL/min/gprot; Liver clearance rate Clint Hep In Vivo Extpl ([3]; human liver microsomes): 167 mL/min; half-life ([3]; human, liver microsomes, pH 7.4, human liver microsomes, read-out: Half life T-half): 14.2 h; bioavailability ([3]; human, liver microsomes, pH 7.4, human liver microsomes, read-out: Metabolic bioavailability MF %): 88.8%; Clearance rate in vivo Clint In Vivo Extpl [4]: 10.0 mL/min; Half life T-half [4]: 1.57 h; Intrinsic clearance rate in vivo Clint In Vitro [4]: 22.3 mL/min/gprot; Liver clearance rate Clint Hep In Vivo Extpl [4]: 6.67 mL/min; Metabolic bioavailability MF % [4]: 66.6%; Clearance rate in vivo Clint In Vivo Extpl [5]: 3.86 mL/min; Half life T-half [5]: 0.613 h; Intrinsic clearance rate in vivo Clint In Vitro [5]: 57.1 mL/min/gprot; Liver clearance rate Clint Hep In Vivo Extpl [5]: 1.69 mL/min; Metabolic bioavailability MF % [5]: 43.7%
1.7 |  | CS(=O)(=O)N1CCC=C(c2cnc(NCc3c(F)ccc4c3CCO4)n3cnnc23)CC1 [SL-E14] | 
17.9 |  | C1=C(c2cnc(NCc3cccc4c3CCO4)n3cnnc23)CCOC1 [SL-ZYE-11] | 
56 |  | C1=C(c2cnc(NCc3cccc4occc34)n3cnnc23)CCOC1 [SL-ZYE-17] | 
115 |  | CC(C)(C)OC(=O)N1CC=C(c2cnc(NCc3cccc4occc34)n3cnnc23)CC1 [SL-ZYE-18] | 
 | 1 to 3 | COC(=O)N1CC=C(c2cnc(NCc3c(F)ccc4c3CCO4)n3cnnc23)CC1 [SL-ZYE-147] | 
